From patent EP1743889A1, “Sustituted pyrazoline compounds, having predetermined stereochemistry, for reducing triglycerides in blood” (Laboratorios del Dr. Esteve S.A., priority 2005, dated 2007)

Test system: triglycerides in blood plasma
Test: In-vivo testing for regulation of triglycerides in blood plasma
Parameters: species or system male mice B6 Lep ob/ob
Settings: obese mice fed with high fat diet; 30 mg/kg/day, p.o., 14 days treatment
Description: This effect is probed in obese mice fed with high fat diet. In the following paragraphs the method of this study is described.
The study is done using six weeks old male mice B6 Lep ob/ob, obtained from Charles River (France). Mice are divided in 3 groups: I (control), II (vehicle), III (example 0).
The animals of the group I receive the standard diet (D-12450B, Research Diets, NJ, USA).
The animals of the groups II and III are fed with a High Fat Diet (D-12492, Research Diets, NJ, USA), in both cases for 7 weeks (References 1 and 2).
The animals of the groups III are fed with a High Fat Diet (D-12492, Research Diets, NJ, USA), in both cases for 7 weeks (References 1 and 2).
At the end of the feeding period of 7 weeks, the treatment period (14 days) is started: Group II mice receive the vehicle (10 ml/kg/day, po, of the aqueous solution of acacia gum, 5% W/V). Group III is administered with 30 mg/kg/day, p.o., of the inventive compound (R)-5-(4-chlorophenyl)-1-(2,4-dichlorophenyl)-4,5-dihydro-pyrazole-3-carboxylic acid according to Example 0. […] The three groups of mice have the same diet than in the previous period.
At the end of the 14 days period of treatment, the blood levels of triglicerides of the animals are determined.
The analysis of the whole blood samples is done using test strips "Lipid panel" and the photometric Analyzer Cardio-Check Test System, from PA Instruments Polymer […]

In the case of `O=C(O)C1=NN(c2ccc(Cl)cc2Cl)[C@@H](c2ccc(Cl)cc2)C1` [Example 0, (R)-5-(4-chlorophenyl)-1-(2,4-dichlorophenyl)-4,5-dihydro-pyrazole-3-carboxylic acid], the “blood levels of triglicerides” value is reported as “inhibitor of high blood levels of triglicerides”.
